The values that follow come from article PMC7287781 (Molecules, 2020).

One assay has as its target T1, Flt-1 (Homo sapiens, UniProt P17948).
T1 construct: gene FLT1; purified tyrosine kinase protein
Briefly: ELISA tyrosine kinase activity assay, single concentration. Format: biochemical. The settings on record: read-out: Inhibition Rate(%) / Flt-1. For orientation: ELISA stands for enzyme-linked immunosorbent assay.

Another assay concerns the target T2, PDGFR-α (Homo sapiens, UniProt P16234).
T2 construct: gene PDGFRA; purified tyrosine kinase protein
The description is as above. Type of assay: biochemical. The settings on record: read-out: Inhibition Rate(%) / PDGFR-α.

The target in the next assay is T3, PDGFR-β (Homo sapiens, UniProt P09619).
T3 construct: gene PDGFRB; purified tyrosine kinase protein
T3 sequence (P09619 33-1106): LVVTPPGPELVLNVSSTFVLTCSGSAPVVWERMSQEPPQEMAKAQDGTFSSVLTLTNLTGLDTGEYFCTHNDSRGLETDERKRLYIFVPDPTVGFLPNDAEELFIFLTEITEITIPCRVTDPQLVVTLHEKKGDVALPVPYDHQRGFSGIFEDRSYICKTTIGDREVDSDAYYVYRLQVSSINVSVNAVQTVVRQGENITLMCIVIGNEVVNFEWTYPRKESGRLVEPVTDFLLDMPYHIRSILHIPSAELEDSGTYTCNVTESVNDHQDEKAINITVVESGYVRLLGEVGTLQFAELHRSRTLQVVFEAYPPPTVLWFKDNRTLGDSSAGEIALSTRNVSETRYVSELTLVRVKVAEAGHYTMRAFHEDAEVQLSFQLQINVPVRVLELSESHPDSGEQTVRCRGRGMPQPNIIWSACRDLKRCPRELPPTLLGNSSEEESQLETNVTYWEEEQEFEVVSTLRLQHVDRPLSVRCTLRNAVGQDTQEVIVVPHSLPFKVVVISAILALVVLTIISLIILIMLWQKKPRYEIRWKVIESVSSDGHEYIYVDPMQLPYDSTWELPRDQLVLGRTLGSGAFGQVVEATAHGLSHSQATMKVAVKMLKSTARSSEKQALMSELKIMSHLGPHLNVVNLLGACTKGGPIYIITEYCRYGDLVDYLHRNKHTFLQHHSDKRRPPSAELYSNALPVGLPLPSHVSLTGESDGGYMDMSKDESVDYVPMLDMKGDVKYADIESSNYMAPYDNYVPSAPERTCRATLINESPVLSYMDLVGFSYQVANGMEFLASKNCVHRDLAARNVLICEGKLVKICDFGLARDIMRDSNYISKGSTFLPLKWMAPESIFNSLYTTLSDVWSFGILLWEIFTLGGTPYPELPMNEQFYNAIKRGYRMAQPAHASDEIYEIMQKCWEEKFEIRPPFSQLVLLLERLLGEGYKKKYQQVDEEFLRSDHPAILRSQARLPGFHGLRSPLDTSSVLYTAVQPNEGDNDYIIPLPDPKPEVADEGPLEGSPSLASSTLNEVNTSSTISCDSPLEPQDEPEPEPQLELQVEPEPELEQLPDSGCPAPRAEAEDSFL
The description is as above. Type of assay: biochemical. The settings on record: read-out: Inhibition Rate(%) / PDGFR-β.

The next assay deals with T4, STAT3 (Homo sapiens, UniProt P40763).
T4 construct: STAT3 protein (ab43618, Abcam)
T4 sequence (P40763 2-770): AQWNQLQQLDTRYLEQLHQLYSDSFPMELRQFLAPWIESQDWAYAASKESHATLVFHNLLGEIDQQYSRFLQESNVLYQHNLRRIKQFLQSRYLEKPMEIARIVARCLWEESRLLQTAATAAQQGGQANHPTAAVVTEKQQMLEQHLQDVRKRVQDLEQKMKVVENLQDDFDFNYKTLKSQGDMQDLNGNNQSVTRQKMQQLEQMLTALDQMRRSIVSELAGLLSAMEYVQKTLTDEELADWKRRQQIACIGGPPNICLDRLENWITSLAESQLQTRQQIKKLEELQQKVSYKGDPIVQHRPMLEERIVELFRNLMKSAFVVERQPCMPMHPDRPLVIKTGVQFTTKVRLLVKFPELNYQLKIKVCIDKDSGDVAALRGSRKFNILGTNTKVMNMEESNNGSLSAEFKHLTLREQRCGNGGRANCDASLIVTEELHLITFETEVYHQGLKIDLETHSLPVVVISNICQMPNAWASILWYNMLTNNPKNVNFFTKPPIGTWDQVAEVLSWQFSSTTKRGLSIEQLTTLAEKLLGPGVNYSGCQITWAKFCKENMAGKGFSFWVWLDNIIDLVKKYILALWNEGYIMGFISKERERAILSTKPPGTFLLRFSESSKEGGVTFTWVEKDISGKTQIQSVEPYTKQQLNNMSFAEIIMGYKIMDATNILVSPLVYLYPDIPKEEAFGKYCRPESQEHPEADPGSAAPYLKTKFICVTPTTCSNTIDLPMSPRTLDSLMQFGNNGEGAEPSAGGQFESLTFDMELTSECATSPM
The assay can be described thus: fluorescence polarization competition with 5-carboxyfluorescein-GpYLPQTV-NH2; […], […], […] inhibition at […]. Format: binding. In general terms: In fluorescence polarisation assays a small probe gives low polarisation when free and higher when bound to something large.

T1 sequence (P17948 27-1338): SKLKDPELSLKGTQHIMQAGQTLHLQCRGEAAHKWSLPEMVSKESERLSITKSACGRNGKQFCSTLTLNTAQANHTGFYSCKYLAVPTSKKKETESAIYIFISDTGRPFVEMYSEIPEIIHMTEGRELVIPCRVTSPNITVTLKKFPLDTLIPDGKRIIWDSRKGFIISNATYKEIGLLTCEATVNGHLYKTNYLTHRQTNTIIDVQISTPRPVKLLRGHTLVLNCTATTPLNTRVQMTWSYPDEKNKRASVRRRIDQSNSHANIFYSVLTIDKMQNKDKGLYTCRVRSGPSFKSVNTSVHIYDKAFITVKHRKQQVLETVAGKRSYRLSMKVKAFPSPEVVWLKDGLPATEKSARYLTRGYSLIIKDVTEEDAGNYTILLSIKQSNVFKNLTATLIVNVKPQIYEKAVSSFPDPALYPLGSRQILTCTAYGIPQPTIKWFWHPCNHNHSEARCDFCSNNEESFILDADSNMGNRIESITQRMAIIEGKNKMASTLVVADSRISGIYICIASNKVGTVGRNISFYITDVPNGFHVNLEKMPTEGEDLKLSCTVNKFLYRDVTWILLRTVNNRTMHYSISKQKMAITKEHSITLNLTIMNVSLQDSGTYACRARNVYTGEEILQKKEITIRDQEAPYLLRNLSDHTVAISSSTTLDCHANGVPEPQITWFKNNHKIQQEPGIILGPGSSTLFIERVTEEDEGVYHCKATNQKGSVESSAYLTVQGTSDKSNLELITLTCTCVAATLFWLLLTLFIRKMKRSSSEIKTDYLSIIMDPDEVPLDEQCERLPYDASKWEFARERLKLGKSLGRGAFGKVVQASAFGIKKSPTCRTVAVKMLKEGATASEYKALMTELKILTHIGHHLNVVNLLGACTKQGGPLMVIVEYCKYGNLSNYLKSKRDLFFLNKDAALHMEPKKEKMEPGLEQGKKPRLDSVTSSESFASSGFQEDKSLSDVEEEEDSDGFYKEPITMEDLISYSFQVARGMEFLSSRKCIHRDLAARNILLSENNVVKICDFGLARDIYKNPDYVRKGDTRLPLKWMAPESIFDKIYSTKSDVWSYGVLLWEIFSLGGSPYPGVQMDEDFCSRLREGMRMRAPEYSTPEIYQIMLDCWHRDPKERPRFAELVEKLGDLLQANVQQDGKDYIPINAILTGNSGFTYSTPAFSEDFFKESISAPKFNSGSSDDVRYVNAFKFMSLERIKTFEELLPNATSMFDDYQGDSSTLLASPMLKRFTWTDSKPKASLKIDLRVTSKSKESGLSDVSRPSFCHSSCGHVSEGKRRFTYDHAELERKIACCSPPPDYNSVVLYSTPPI
T2 sequence (P16234 24-1089): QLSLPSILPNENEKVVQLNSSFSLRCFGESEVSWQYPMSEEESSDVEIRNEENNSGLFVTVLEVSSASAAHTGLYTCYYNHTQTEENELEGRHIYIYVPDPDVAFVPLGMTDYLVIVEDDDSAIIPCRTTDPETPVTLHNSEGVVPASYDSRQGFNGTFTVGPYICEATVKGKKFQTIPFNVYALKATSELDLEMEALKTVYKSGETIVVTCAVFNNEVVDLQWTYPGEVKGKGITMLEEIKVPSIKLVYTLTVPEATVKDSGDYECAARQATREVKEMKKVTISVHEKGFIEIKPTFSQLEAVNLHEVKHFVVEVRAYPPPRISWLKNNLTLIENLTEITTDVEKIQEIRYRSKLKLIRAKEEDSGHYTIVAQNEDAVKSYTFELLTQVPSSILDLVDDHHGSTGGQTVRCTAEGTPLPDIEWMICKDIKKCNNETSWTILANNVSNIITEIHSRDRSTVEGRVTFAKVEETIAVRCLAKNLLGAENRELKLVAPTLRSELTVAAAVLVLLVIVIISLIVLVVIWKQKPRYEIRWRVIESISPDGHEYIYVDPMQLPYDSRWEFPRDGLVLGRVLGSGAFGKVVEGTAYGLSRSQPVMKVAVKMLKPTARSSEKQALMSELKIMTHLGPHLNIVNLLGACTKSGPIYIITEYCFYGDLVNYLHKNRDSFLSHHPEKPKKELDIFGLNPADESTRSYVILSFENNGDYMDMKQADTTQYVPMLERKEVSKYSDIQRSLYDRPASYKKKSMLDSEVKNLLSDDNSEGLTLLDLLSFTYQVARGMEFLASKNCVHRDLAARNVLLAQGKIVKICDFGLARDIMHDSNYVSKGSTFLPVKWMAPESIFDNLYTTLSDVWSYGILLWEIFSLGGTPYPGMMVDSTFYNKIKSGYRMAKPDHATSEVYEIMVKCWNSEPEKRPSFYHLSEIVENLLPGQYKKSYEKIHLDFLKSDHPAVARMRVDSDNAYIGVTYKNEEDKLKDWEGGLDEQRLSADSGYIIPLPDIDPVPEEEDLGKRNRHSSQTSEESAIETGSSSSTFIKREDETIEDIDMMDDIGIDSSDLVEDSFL

As to `CCN(CC)CCNC(=O)c1c(C)[nH]c(/C=C2\C(=O)Nc3ccc(F)cc32)c1C` [Su11248], the figures for the inhibition at 1 µM at Flt-1, on PDGFR-α and on PDGFR-β were 66.6%, 68.4% and 80.2%, respectively.
In the case of `C/C=C\C(=O)O[C@@H]1C[C@H]2O[C@@H]3C=C(C)C(=O)C[C@]3(C)[C@]1(C)[C@]21CO1` [TCN, trichothecin], the “% inhibition at 2 μM” value at STAT3 was determined as 53.9.
